pKd: −log10 of the molar value. Calls of active or inactive are those of the source.
How the values were obtained:
[1] = target: T1, Interleukin-1 receptor-associated kinase 3 (Homo sapiens, UniProt Q9Y616)
T1 sequence (Q9Y616 whole entry): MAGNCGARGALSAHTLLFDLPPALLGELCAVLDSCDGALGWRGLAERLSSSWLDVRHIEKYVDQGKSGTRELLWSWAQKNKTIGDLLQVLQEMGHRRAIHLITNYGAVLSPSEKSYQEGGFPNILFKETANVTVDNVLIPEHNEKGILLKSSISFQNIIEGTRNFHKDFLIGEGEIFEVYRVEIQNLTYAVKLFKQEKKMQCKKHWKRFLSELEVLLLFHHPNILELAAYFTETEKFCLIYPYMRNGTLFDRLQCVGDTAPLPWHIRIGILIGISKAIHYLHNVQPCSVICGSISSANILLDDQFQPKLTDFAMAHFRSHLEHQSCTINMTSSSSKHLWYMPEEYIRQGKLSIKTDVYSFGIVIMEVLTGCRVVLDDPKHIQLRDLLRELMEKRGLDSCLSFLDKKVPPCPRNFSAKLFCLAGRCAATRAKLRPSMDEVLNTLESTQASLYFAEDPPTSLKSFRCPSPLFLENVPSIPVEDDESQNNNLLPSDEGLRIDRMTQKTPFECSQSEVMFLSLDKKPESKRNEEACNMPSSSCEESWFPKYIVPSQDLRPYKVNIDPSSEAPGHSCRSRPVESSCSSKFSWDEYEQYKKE

[2] = target: T2, STE20-related kinase adapter protein alpha (Homo sapiens, UniProt Q7RTN6)
T2 sequence (Q7RTN6 whole entry): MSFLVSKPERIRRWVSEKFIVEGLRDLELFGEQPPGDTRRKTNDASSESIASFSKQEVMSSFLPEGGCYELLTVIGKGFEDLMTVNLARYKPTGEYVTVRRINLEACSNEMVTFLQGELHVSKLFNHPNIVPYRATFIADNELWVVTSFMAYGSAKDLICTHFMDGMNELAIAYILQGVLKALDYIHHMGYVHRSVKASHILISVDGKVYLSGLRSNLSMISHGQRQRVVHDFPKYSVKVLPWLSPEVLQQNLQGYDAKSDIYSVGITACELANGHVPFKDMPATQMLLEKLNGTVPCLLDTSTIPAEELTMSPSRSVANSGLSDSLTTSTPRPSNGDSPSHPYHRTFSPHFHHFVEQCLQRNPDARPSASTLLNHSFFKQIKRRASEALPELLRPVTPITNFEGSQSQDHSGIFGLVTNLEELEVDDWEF

[3] = target: T3, Phosphatidylinositol 5-phosphate 4-kinase type-2 alpha (Homo sapiens, UniProt P48426)
T3 sequence (P48426 whole entry): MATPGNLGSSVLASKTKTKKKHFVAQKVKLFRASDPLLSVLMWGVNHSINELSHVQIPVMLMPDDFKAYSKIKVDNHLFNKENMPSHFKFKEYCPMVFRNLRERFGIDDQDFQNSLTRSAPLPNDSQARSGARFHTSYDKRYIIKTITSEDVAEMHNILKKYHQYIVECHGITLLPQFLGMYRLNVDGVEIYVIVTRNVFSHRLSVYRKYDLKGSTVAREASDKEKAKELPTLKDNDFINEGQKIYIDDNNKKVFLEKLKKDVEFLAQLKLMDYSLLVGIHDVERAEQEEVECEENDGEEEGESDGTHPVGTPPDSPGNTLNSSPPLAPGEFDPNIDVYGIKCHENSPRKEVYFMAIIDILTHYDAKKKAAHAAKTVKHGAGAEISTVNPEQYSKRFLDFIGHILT

Septin-9 = target: T4, Septin-9 (Homo sapiens, UniProt Q9UHD8)
T4 sequence (Q9UHD8 whole entry): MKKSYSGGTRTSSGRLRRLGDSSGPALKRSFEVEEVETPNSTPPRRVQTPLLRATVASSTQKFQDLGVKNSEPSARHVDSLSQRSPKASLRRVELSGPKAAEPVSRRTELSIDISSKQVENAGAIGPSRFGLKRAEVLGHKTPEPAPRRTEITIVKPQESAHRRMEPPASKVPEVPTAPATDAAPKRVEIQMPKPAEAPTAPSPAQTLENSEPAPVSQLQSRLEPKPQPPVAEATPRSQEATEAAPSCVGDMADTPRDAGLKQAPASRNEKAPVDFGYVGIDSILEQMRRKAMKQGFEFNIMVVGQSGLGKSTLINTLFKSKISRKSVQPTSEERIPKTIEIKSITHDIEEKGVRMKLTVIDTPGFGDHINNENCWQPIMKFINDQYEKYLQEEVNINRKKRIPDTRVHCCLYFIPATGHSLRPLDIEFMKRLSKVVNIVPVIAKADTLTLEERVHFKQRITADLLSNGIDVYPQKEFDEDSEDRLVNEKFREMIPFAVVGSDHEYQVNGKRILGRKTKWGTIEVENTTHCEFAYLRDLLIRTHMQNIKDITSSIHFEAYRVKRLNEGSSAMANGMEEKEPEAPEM

[4] = target: Serine/threonine-protein kinase N1 (Homo sapiens, UniProt Q16512)
[5] = target: Receptor-interacting serine/threonine-protein kinase 3 (Homo sapiens, UniProt Q9Y572)
[6] = target: T5, Adenine phosphoribosyltransferase (Homo sapiens, UniProt P07741)
T5 sequence (P07741 whole entry): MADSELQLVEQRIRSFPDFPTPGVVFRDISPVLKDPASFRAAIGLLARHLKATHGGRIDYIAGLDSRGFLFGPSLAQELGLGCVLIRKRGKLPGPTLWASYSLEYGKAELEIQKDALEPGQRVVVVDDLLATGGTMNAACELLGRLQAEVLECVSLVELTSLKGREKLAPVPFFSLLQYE

[7] = target: Tyrosine-protein kinase ABL1 (Homo sapiens, UniProt P00519)
Also: in the data inactive means no Kd found up to 30 µM.

Sequence of Tyrosine-protein kinase ABL1 (P00519 whole entry): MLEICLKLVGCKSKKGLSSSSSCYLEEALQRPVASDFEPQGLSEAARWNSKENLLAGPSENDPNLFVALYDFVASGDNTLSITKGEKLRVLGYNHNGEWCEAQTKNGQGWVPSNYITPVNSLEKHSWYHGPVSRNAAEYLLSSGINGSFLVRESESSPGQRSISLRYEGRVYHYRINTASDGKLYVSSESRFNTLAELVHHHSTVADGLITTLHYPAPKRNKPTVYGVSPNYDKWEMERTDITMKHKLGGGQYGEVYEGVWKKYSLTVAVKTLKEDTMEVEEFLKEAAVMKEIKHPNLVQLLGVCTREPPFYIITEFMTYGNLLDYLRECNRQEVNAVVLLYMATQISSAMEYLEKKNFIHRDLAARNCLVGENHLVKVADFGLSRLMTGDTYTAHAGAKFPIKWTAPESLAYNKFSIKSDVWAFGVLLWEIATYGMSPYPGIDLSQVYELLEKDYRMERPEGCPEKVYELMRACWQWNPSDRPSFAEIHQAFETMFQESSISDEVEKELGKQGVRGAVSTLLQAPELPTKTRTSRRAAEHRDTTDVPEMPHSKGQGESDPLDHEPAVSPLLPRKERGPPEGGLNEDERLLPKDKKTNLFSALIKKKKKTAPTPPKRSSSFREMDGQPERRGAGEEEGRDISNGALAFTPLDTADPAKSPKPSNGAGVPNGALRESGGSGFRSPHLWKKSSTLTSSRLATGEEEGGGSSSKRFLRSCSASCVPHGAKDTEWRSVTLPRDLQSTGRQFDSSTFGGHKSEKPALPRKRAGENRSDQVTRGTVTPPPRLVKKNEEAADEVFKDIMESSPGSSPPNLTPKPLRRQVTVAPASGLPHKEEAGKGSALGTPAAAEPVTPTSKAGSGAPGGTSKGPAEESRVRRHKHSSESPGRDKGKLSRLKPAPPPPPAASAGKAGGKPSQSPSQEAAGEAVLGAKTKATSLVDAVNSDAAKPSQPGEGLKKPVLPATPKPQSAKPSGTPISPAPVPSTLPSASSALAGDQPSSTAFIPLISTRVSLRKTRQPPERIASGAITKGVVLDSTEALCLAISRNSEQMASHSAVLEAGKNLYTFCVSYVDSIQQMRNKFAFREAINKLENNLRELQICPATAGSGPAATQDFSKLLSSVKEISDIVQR
Sequence of Serine/threonine-protein kinase N1 (Q16512 whole entry): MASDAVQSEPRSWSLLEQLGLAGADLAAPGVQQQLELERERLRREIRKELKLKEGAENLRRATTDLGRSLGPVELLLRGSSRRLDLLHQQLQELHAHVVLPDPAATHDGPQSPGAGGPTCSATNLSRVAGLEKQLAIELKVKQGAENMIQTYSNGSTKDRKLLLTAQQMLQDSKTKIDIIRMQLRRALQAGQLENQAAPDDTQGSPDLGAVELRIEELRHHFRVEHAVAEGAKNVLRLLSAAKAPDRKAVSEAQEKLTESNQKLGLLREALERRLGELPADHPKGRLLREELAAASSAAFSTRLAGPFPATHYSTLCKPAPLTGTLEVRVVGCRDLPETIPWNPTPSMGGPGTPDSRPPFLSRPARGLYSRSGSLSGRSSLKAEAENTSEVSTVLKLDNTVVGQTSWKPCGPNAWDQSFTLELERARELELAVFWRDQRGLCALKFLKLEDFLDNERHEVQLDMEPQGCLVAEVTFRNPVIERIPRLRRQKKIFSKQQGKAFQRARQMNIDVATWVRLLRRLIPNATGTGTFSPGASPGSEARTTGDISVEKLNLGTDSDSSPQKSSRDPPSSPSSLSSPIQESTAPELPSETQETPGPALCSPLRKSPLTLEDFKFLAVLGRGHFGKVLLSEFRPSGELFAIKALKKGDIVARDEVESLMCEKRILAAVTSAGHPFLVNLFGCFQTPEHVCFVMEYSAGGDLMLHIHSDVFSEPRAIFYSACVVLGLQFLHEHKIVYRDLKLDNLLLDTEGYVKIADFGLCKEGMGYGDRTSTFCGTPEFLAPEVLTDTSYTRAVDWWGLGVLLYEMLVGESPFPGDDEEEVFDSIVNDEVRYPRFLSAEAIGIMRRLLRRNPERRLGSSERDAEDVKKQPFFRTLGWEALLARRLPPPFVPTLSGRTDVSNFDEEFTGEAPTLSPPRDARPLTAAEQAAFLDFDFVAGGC
Sequence of Receptor-interacting serine/threonine-protein kinase 3 (Q9Y572 whole entry): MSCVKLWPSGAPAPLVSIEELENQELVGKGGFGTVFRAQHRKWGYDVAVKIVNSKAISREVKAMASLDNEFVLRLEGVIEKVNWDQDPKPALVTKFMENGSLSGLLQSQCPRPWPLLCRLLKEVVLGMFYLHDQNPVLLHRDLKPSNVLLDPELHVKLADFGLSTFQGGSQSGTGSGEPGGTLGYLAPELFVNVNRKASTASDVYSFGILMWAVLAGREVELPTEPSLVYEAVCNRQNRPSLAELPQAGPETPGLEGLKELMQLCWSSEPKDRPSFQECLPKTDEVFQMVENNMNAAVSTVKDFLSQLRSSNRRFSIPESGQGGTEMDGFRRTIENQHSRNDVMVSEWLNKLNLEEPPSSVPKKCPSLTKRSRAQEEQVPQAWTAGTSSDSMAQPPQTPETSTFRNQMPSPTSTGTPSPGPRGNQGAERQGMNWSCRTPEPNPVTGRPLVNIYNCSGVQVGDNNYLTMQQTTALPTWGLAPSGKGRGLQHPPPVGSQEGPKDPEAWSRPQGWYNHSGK

Kd [2]	Kd [3]	Kd (Septin-9)	Kd [4]	Kd [5]	Kd [6]	Kd [7]	pKd (Septin-9)	Structure (SMILES)	Kd [1]	pKd [4]
> 30 µM (inactive)	> 30 µM (inactive)	> 30 µM (inactive)	> 30 µM (inactive)	> 30 µM (inactive)	> 30 µM (inactive)			CCN(CCCOc1ccc2c(Nc3cc(CC(=O)Nc4cccc(F)c4)n[nH]3)ncnc2c1)CCOP(=O)(O)O [BARASERTIB]	> 30 µM (inactive)	
> 30 µM (inactive)		> 30 µM (inactive)	> 30 µM (inactive)	> 30 µM (inactive)	> 30 µM (inactive)	> 30 µM (inactive)		O=C(NC[C@H](O)CO)c1ccncc1Nc1ccc(I)cc1F [PIMASERTIB]	> 30 µM (inactive)	
> 30 µM (inactive)	> 30 µM (inactive)	> 30 µM (inactive)		> 30 µM (inactive)	> 30 µM (inactive)			COc1cc2c(Oc3ccc4[nH]c(C)cc4c3F)ncnc2cc1OCCCN1CCCC1 [CEDIRANIB]		
> 30 µM (inactive)		> 30 µM (inactive)	> 30 µM (inactive)	> 30 µM (inactive)		> 30 µM (inactive)		CNC(=O)c1cc(COc2nnc(Nc3ccc(Cl)cc3)c3ccoc23)ccn1 [TELATINIB]	> 30 µM (inactive)	
> 30 µM (inactive)		> 30 µM (inactive)	> 30 µM (inactive)	> 30 µM (inactive)	> 30 µM (inactive)	> 30 µM (inactive)		COc1ccc(-c2ccc3ncc4c(c3c2)n(-c2ccc(N3CCNCC3)c(C(F)(F)F)c2)c(=O)n4C)cn1 [BGT-226 FREE BASE]	> 30 µM (inactive)	
> 30 µM (inactive)	> 30 µM (inactive)			> 30 µM (inactive)	> 30 µM (inactive)		8.00	COc1cc2c(N3CCN(C(=O)Nc4ccc(OC(C)C)cc4)CC3)ncnc2cc1OCCCN1CCCCC1 [TANDUTINIB]		
> 30 µM (inactive)		> 30 µM (inactive)	> 30 µM (inactive)	> 30 µM (inactive)	> 30 µM (inactive)	> 30 µM (inactive)		C=CC(=O)Nc1cccc(Nc2nc(Nc3ccc(N4CCN(C(C)=O)CC4)cc3OC)ncc2C(F)(F)F)c1 [ROCILETINIB]	> 30 µM (inactive)	
> 30 µM (inactive)	> 30 µM (inactive)	> 30 µM (inactive)	2.92 µM (active)	> 30 µM (inactive)	> 30 µM (inactive)			O=S(=O)(c1cccc2c(O)nccc12)N1CCCNCC1 [HYDROXYFASUDIL]	> 30 µM (inactive)	
> 30 µM (inactive)	> 30 µM (inactive)	> 30 µM (inactive)		1.04 µM (active)	> 30 µM (inactive)			CC1(C)CNc2cc(NC(=O)c3cccnc3NCc3ccncc3)ccc21 [MOTESANIB]		
> 30 µM (inactive)	> 30 µM (inactive)	> 30 µM (inactive)		> 30 µM (inactive)	> 30 µM (inactive)			Cn1cnc2c(F)c(Nc3ccc(Br)cc3Cl)c(C(=O)NOCCO)cc21 [SELUMETINIB]		
> 30 µM (inactive)		> 30 µM (inactive)	> 30 µM (inactive)	> 30 µM (inactive)		> 30 µM (inactive)		CC(C)(O)CC(=O)NCCn1ccc2ncnc(Nc3ccc(Oc4cccc(C(F)(F)F)c4)c(Cl)c3)c21 [TAK-285]	> 30 µM (inactive)	
> 30 µM (inactive)	> 30 µM (inactive)	> 30 µM (inactive)		> 30 µM (inactive)	> 30 µM (inactive)			C[C@@]1(C(=O)Nc2ccc(F)nc2)CCCN1c1nc(Nc2cc(C3CC3)n[nH]2)c2cccn2n1 [BMS-754807]		
> 30 µM (inactive)	> 30 µM (inactive)	> 30 µM (inactive)	> 30 µM (inactive)	> 30 µM (inactive)	> 30 µM (inactive)			Cn1c(=O)n(-c2ccc(C(C)(C)C#N)cc2)c2c3cc(-c4cnc5ccccc5c4)ccc3ncc21 [DACTOLISIB]	> 30 µM (inactive)	
> 30 µM (inactive)	> 30 µM (inactive)	> 30 µM (inactive)		> 30 µM (inactive)	> 30 µM (inactive)			CN(C)C/C=C/C(=O)Nc1cc2c(Nc3ccc(F)c(Cl)c3)ncnc2cc1O[C@H]1CCOC1 [AFATINIB]		

Structure (SMILES)	Kd [2]	Kd [3]	Kd (Septin-9)	Kd [4]	Kd [5]	Kd [6]	Kd [7]	pKd (Septin-9)	Kd [1]	pKd [4]
N#CCNC(=O)c1ccc(-c2ccnc(Nc3ccc(N4CCOCC4)cc3)n2)cc1 [MOMELOTINIB]		> 30 µM (inactive)	> 30 µM (inactive)	> 30 µM (inactive)	> 30 µM (inactive)	> 30 µM (inactive)			> 30 µM (inactive)	
CC(C)CC(=O)Nc1[nH]nc2c1CN(C(=O)C1CCN(C)CC1)C2(C)C [PHA-793887]	> 30 µM (inactive)		> 30 µM (inactive)		> 30 µM (inactive)	> 30 µM (inactive)			> 30 µM (inactive)	
C=CCn1c(=O)c2cnc(Nc3ccc(N4CCN(C)CC4)cc3)nc2n1-c1cccc(C(C)(C)O)n1 [ADAVOSERTIB]	> 30 µM (inactive)		> 30 µM (inactive)	> 30 µM (inactive)	> 30 µM (inactive)	> 30 µM (inactive)			> 30 µM (inactive)	
C[C@]1(O)C[C@@H](c2nc(-c3ccc4ccc(-c5ccccc5)nc4c3)c3c(N)nccn32)C1 [LINSITINIB]	> 30 µM (inactive)	> 30 µM (inactive)	> 30 µM (inactive)	> 30 µM (inactive)	6.05 µM (active)				> 30 µM (inactive)	
CN(c1ncccc1CNc1nc(Nc2ccc3c(c2)CC(=O)N3)ncc1C(F)(F)F)S(C)(=O)=O [PF-00562271]	> 30 µM (inactive)	> 30 µM (inactive)	> 30 µM (inactive)	7.96 µM (active)	> 30 µM (inactive)	> 30 µM (inactive)			> 30 µM (inactive)	
C=CCN(/C=C1/C(=O)O[C@H](COC)[C@@]2(C)C1=C(O)C(=O)C1=C2[C@H](OC(C)=O)C[C@]2(C)C(=O)CC[C@@H]12)CC=C [SONOLISIB]	> 30 µM (inactive)		> 30 µM (inactive)	> 30 µM (inactive)	> 30 µM (inactive)		> 30 µM (inactive)		> 30 µM (inactive)	
Cn1cc(-c2[nH]c3cc(NC(=O)[C@H](N)C4CCCCC4)cc4c3c2C=NNC4=O)cn1	> 30 µM (inactive)	> 30 µM (inactive)	> 30 µM (inactive)	0.119 µM (active)	> 30 µM (inactive)	> 30 µM (inactive)			> 30 µM (inactive)	
CN1CCN(c2nc(C3=C(c4c[nH]c5ccccc45)C(=O)NC3=O)c3ccccc3n2)CC1 [SOTRASTAURIN]	> 30 µM (inactive)		> 30 µM (inactive)		> 30 µM (inactive)		> 30 µM (inactive)		> 30 µM (inactive)	5.53

Reference: ChEMBL document CHEMBL3991601, “The target landscape of clinical kinase drugs” (Science, 2017)
